Data reported in patent US5049694A, “Pharmaceutical composition having relaxing activity which contains a nitrate ester as active substance” (Cedona Pharmaceuticals B.V., priority 1988, dated 1991).
Read-outs that look alike come from different tables or passages of the source.

Tests used:
[1] = system: contracted strips of the rats' arota; experiment: relaxing potency in vitro on phenylefrine-contracted strips of rat aorta; format: cell-based, rat (male Wistar); details: read-out: EC50 (concentration with which relaxation took place up to 50% of the contraction induced by 10^-7 M phenylefrine)
Experimental: The relaxing potency of the compounds as described is tested in vitro on contracted strips of the rats' arota. Male Wistar rates (200-220 g) are killed by decapitation. The thoracal aorta is removed and is helically cut into strips (length: ±10 mm, width: ±2 mm; 4 strips per rat).
The strips are suspended in organ baths filled with 20 ml of Krebs' medium with a constant temperature of 37° C. passing through O2 /CO2 (95/5) and subsequently for 2 h equilibrated under an isotonic load of 500 mg. The medium is renewed every 20 minutes.
After equilibration contraction takes place by addition of 10^-7M phenylefrine to the medium. After reaching the maximal contraction the composition with the organic nitrate ester to be tested in cumulative concentration steps is relaxed.
The degree of relaxation is expressed as a percentage of the maximal contraction (=100%) reached with 10^-7 M phenylefrine. The relaxing potency of the tested compounds is expressed as the EC50 : the concentration with which relaxation took place up to 50% of the contraction induced by 10^-7 M phenylefrine. From a number of compounds the EC50 -values have been stated in Table 1. For comparison the EC50 -values of glyceryltrinitrate and isosorbidedinitrate have also been included.

[2] = system: heart; details: therapeutical use; cited from earlier work
[3] = chronical administration, clinical; cited from earlier work

O=[N+]([O-])OCC(CO[N+](=O)[O-])c1ccc2ccccc2c1 [Compound 10, 2-(2-naphthyl)-1,3-propanediol nitrate]
EC50 ([1]; Rattus norvegicus): 0.013 µM

O=[N+]([O-])OCCc1ccccc1 [Compound 1, 2-phenylethanol nitrate]
EC50 [1]: 0.12 µM

O=[N+]([O-])OCCc1cccc2ccccc12 [Compound 9, 2-(1-naphthyl)ethanol nitrate]
EC50 ([1]; Rattus norvegicus): 0.0042 µM

O=[N+]([O-])OCC(CO[N+](=O)[O-])O[N+](=O)[O-] [glyceryl trinitrate]
EC50 ([1]; rat thoracal aorta strips, contracted with 10^-7 M phenylefrine, cumulative concentrations, 37° C.): 0.0073 µM
need of oxygen to the heart [2]: lower need of oxygen to the heart
post-load of the heart [2]: also affected, be it to a lower extent
pre-load of the heart [2]: diminish especially the pre-load of the heart
development of tolerance [3]: development of so-called tolerance

O=[N+]([O-])OC(Cc1ccccc1)Cc1ccccc1 [Compound 23, 1,3-diphenyl-2-propanol nitrate]
EC50 ([1]; Rattus norvegicus): 0.4 µM

O=[N+]([O-])OCCOC(c1ccccc1)c1ccccc1 [Compound 25, 2-diphenylmethoxyethanol nitrate]
EC50 ([1]; Rattus norvegicus): 0.25 µM

Cc1c(C)c(CCO[N+](=O)[O-])c(C)c(C)c1CCO[N+](=O)[O-] [Compound 12, 1,4-bis(2-nitroxyethyl)-2,3,5,6-tetramethylbenzene]
EC50 ([1]; Rattus norvegicus): 0.078 µM

O=[N+]([O-])O[C@@H]1CO[C@H]2[C@@H]1OC[C@@H]2OC(c1ccccc1)c1ccccc1 [Compound 28, 2-diphenylmethyl-1,4:3,6-dianhydroglucitol nitrate]
EC50 ([1]; Rattus norvegicus): 0.2 µM

O=[N+]([O-])OCCc1ccc(CCO[N+](=O)[O-])cc1 [Compound 11, 1,4-bis(2-nitroxyethyl)benzene]
EC50 ([1]; Rattus norvegicus): 0.0046 µM
